Columns and labels:
Experiment in all cases: KinaseProfiler Assay
[1] = target: CHK2(I157T)(h) (Homo sapiens, UniProt O96017, I157T)
[2] = target: ROCK-I(h) (Homo sapiens, UniProt Q13464)
[3] = target: T1, EphA8(h) (Homo sapiens, UniProt P29322)
T1 sequence (P29322 28-1005): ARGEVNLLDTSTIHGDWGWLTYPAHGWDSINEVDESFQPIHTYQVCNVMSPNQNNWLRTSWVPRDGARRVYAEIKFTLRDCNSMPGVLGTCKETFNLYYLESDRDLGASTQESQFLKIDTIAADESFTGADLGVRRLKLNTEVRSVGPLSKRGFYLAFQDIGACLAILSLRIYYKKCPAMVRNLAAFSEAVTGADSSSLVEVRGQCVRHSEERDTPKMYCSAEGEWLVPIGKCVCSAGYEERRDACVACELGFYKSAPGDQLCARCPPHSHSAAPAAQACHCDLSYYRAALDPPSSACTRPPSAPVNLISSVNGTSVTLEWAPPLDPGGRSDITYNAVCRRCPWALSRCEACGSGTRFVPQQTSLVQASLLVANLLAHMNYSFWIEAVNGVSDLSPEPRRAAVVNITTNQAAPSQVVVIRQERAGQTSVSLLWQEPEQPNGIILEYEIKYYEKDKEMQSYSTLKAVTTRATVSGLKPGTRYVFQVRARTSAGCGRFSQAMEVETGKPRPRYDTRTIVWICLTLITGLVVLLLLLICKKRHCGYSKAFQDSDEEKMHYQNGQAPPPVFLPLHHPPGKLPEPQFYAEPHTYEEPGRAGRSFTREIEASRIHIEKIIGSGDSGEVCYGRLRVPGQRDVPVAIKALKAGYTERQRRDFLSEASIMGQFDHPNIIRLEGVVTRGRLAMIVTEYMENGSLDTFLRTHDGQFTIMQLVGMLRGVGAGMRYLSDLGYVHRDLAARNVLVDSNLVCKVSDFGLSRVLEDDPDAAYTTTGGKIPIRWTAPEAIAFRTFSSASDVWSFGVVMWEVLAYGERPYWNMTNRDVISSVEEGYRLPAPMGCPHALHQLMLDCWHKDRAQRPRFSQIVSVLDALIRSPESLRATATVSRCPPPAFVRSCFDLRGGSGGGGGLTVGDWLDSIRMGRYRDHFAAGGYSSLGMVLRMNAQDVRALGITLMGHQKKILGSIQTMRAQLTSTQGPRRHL

[4] = target: Flt1(h) (Homo sapiens, UniProt P17948)
[5] = target: T2, EphA1(h) (Homo sapiens, UniProt P21709)
T2 sequence (P21709 26-976): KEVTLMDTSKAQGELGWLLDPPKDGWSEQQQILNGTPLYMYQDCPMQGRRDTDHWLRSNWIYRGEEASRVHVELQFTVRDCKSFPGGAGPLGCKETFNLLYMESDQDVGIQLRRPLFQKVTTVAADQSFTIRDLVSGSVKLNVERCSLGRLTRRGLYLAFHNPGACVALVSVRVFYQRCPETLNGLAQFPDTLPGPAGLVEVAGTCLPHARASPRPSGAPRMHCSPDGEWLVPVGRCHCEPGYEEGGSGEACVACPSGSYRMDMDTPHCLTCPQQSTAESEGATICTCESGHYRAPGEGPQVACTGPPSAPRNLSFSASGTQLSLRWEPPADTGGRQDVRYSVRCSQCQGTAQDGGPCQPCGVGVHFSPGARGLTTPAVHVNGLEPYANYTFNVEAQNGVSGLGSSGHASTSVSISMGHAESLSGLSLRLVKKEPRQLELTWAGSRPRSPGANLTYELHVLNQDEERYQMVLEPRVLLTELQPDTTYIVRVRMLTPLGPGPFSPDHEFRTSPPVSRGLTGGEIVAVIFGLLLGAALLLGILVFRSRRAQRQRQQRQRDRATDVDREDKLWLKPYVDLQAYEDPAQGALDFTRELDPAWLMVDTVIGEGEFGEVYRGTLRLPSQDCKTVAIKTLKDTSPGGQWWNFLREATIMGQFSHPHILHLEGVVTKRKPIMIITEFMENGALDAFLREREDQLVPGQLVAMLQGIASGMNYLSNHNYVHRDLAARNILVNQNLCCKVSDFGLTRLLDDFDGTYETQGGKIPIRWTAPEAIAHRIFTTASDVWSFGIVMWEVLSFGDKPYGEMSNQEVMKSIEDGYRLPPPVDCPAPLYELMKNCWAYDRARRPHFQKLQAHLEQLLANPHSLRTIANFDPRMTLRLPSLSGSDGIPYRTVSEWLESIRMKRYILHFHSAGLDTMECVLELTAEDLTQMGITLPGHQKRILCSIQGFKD

[6] = target: Fms(h) (Homo sapiens, UniProt P07333)
Sequence of Fms(h) (P07333 20-972): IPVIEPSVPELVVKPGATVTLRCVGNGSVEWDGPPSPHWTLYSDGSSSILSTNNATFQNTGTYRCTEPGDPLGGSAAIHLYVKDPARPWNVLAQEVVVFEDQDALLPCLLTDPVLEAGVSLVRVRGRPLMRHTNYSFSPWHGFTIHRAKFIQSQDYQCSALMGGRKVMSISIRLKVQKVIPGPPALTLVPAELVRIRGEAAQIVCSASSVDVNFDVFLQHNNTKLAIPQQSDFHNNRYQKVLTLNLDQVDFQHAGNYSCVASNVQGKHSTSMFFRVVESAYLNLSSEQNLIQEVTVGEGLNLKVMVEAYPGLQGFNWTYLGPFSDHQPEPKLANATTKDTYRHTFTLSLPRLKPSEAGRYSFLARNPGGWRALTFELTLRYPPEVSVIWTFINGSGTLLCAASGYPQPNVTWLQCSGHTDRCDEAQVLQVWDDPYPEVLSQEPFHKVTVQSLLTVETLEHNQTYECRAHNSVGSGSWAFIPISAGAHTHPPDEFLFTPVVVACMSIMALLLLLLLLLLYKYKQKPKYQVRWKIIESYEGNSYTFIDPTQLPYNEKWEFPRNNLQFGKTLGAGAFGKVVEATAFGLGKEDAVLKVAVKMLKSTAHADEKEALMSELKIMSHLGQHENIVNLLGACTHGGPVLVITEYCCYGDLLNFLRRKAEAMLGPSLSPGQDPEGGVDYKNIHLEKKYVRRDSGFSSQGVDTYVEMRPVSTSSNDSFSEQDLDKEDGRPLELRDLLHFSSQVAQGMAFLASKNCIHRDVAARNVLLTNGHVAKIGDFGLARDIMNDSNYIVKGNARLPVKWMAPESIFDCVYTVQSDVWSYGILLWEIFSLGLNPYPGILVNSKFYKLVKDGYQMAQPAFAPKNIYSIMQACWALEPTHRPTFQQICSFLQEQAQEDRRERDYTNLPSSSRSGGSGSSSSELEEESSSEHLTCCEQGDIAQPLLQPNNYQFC

Sequence of CHK2(I157T)(h) (O96017 whole entry I157T): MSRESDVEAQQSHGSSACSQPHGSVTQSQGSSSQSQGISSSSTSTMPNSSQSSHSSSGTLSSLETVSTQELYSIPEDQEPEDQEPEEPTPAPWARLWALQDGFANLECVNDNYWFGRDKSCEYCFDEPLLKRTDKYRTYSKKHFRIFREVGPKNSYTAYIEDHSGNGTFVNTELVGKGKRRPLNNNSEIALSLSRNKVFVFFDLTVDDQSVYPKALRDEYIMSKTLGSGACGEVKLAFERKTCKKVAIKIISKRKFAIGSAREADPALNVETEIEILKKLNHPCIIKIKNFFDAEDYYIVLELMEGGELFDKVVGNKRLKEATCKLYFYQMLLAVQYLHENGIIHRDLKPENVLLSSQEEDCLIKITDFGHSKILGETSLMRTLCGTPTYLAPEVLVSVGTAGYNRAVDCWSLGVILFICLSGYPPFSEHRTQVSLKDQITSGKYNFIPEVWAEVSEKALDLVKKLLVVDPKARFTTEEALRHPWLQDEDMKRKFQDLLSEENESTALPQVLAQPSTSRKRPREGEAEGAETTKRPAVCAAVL
Sequence of Flt1(h) (P17948 27-1338): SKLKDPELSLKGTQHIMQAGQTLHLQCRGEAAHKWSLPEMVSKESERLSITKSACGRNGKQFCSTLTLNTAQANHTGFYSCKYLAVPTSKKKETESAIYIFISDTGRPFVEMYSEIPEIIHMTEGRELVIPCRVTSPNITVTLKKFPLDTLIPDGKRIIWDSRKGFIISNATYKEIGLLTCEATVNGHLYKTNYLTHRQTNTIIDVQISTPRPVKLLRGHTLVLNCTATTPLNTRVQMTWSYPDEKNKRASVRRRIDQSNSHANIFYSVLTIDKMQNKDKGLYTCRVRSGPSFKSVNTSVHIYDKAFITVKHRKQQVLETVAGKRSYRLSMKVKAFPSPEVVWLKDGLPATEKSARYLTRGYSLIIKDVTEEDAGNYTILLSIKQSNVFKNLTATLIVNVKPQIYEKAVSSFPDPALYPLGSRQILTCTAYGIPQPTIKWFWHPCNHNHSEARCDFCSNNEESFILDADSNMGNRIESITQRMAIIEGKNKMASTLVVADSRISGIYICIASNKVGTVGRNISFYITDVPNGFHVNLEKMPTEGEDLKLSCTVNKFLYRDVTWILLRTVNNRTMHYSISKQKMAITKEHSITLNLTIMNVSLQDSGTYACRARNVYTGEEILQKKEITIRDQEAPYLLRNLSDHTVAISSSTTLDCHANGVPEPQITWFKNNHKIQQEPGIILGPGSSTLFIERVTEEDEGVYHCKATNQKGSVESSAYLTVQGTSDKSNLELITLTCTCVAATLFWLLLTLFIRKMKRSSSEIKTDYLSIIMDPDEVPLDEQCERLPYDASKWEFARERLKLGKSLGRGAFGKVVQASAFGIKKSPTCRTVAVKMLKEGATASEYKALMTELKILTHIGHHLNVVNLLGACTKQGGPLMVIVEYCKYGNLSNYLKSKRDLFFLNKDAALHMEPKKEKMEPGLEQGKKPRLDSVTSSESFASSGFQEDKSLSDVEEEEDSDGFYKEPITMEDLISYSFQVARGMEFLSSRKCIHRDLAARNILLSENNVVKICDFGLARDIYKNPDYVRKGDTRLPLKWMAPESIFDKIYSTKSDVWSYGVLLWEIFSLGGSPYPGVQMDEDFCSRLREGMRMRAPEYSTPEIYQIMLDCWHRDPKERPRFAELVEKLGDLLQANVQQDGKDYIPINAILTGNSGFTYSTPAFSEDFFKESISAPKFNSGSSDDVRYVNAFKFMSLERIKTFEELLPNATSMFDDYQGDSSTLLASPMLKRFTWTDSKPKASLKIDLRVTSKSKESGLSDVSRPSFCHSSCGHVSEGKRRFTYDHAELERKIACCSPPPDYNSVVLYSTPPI
Sequence of ROCK-I(h) (Q13464 whole entry): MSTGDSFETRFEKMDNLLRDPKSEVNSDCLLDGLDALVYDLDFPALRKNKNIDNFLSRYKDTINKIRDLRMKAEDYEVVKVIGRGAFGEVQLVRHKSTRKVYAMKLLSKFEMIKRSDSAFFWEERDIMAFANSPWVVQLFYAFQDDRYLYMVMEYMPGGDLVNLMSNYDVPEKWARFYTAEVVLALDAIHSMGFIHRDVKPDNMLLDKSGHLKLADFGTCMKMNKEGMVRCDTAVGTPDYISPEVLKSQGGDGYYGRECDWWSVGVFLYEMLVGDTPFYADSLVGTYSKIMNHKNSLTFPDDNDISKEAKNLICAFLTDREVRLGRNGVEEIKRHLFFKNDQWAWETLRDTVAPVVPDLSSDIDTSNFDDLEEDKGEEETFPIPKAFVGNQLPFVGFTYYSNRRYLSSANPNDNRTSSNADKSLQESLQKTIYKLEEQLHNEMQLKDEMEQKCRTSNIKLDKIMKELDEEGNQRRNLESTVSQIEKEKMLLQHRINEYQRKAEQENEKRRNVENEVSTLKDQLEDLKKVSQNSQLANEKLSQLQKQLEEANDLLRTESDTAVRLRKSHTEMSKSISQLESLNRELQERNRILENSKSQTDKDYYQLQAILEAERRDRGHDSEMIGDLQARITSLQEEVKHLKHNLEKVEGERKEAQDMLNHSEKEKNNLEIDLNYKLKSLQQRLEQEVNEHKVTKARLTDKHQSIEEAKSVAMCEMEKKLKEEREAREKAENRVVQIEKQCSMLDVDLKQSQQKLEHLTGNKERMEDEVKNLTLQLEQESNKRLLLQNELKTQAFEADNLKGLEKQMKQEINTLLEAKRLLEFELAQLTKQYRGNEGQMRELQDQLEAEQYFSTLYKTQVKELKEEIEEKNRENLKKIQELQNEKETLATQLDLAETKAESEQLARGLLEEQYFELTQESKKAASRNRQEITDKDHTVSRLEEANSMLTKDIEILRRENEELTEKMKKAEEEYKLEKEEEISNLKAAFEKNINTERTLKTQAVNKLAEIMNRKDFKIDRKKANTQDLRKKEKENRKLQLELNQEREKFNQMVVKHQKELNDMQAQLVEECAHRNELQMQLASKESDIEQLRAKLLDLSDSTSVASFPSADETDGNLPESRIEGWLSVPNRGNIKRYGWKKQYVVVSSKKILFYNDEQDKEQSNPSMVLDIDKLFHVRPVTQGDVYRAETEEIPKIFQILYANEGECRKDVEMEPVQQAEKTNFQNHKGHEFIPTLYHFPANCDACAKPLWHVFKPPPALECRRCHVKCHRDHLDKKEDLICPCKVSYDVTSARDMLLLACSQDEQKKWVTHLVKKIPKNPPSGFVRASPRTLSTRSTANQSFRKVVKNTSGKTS

With `CC(C)CCC(=O)[C@]1(O)C(O)=C(C(=O)C(C)C)C(=O)[C@H]1CCC(C)C` [TH2, tetrahydroiso-cohumulone] the kinase inhibition ([1]; 1 μg/ml) was 108% of control, the kinase inhibition ([1]; 5 μg/ml) was 104% of control and the kinase inhibition ([1]; 25 μg/ml) was 94% of control. The kinase inhibition ([1]; 50 μg/ml) was 83% of control, the kinase inhibition ([1]; 100 μg/ml) was 74% of control and the kinase inhibition ([2]; 1 μg/ml) was 110% of control. For the same compound, the kinase inhibition ([2]; 5 μg/ml) was 111% of control, the kinase inhibition ([2]; 25 μg/ml) was 110% of control and the kinase inhibition ([2]; 50 μg/ml) was 100% of control. The kinase inhibition ([2]; 100 μg/ml) was 88% of control, the kinase inhibition ([3]; 1 μg/ml) was 118% of control and the kinase inhibition ([3]; 5 μg/ml) was 99% of control. For the same compound, the kinase inhibition ([3]; 25 μg/ml) was 112% of control, the kinase inhibition ([3]; 50 μg/ml) was 101% of control and the kinase inhibition ([3]; 100 μg/ml) was 100% of control. For the same compound, the kinase inhibition ([4]; 1 μg/ml) was 102% of control, the kinase inhibition ([4]; 5 μg/ml) was 97% of control and the kinase inhibition ([4]; 25 μg/ml) was 103% of control. The kinase inhibition ([4]; 50 μg/ml) was 102% of control, the kinase inhibition ([4]; 100 μg/ml) was 98% of control and the kinase inhibition ([5]; 1 μg/ml) was 117% of control. For the same compound, the kinase inhibition ([5]; 5 μg/ml) was 116% of control, the kinase inhibition ([5]; 25 μg/ml) was 108% of control and the kinase inhibition ([5]; 50 μg/ml) was 99% of control. The kinase inhibition ([5]; 100 μg/ml) was 85% of control, the kinase inhibition ([6]; 1 μg/ml) was 116% of control and the kinase inhibition ([6]; 5 μg/ml) was 103% of control. For the same compound, the kinase inhibition ([6]; 25 μg/ml) was 121% of control, the kinase inhibition ([6]; 50 μg/ml) was 117% of control and the kinase inhibition ([6]; 100 μg/ml) was 98% of control.

Source: patent US20100137449A1, “SUBSTITUTED 1,3-CYCLOPENTADIONE MULTI-TARGET PROTEIN KINASE MODULATORS OF CANCER, ANGIOGENESIS AND THE INFLAMMATORY PATHWAYS ASSOCIATED THEREWITH” (METAPROTEOMICS, LLC, priority 2007, published 2010)
